The text below walks through data of patent publication US20050197350A1, “Novel quinoline, tetrahydroquinazoline, and pyrimidine derivatives and methods of treatment related to the use thereof” (TAISHO PHARMACEUTICAL CO., LTD., priority 2003, published 2005).

The test relates to MCH receptors. Description: MCH receptor activity class (method not given). Particulars: class by percent of control at 10^-7 M or IC50.

Each structure is given as a SMILES string.

With `CCc1ccccc1CNC[C@H]1CC[C@@H](Nc2cc(N(C)C)c3ccccc3n2)CC1` [compound 1201], the class is given as 3 (Class 3 The value of percent of control at 10^−7 M was more than 60% or the value of IC50 was more than 200 nM.).

`CN(C)c1cc(N[C@H]2CC[C@@H](CNCc3ccc(N(C)CCC#N)cc3)CC2)nc2ccccc12` [compound 1202]: the class is 3 (Class 3 The value of percent of control at 10^−7 M was more than 60% or the value of IC50 was more than 200 nM.).

Regarding `CN(C)c1cc(N[C@H]2CC[C@@H](CNCc3ccc(OCc4ccc(Br)cc4)cc3)CC2)nc2ccccc12` [compound 1203], the class is listed as 3 (Class 3 The value of percent of control at 10^−7 M was more than 60% or the value of IC50 was more than 200 nM.).

For `CCOc1c(Br)cc(Br)cc1CNC[C@H]1CC[C@@H](Nc2cc(N(C)C)c3ccccc3n2)CC1` [compound 1204], the class is listed as 3 (Class 3 The value of percent of control at 10^−7 M was more than 60% or the value of IC50 was more than 200 nM.).

With `COc1cccc(OC)c1CN[C@H]1CC[C@@H](Nc2nccc(N(C)C)n2)CC1` [compound 1205], the class is recorded as 3 (Class 3 The value of percent of control at 10^−7 M was more than 60% or the value of IC50 was more than 200 nM.).

Turning to `CCOc1ccccc1CN[C@H]1CC[C@@H](Nc2nccc(N(C)C)n2)CC1` [compound 1206], the class is given as 3 (Class 3 The value of percent of control at 10^−7 M was more than 60% or the value of IC50 was more than 200 nM.).

As for `CN(C)c1ccnc(N[C@H]2CC[C@@H](NCc3c[nH]c4ccccc34)CC2)n1` [compound 1207], the class is 3 (Class 3 The value of percent of control at 10^−7 M was more than 60% or the value of IC50 was more than 200 nM.).

`COc1ccc(OC)c(CN[C@H]2CC[C@@H](Nc3nccc(N(C)C)n3)CC2)c1` [compound 1208]: the class was 3 (Class 3 The value of percent of control at 10^−7 M was more than 60% or the value of IC50 was more than 200 nM.).

Regarding `COc1ccc(CN[C@H]2CC[C@@H](Nc3nccc(N(C)C)n3)CC2)c2ccccc12` [compound 1209], the class is on record as 3 (Class 3 The value of percent of control at 10^−7 M was more than 60% or the value of IC50 was more than 200 nM.).

As to `COc1ccc2[nH]cc(CN[C@H]3CC[C@@H](Nc4nccc(N(C)C)n4)CC3)c2c1` [compound 1210], the class is on record as 3 (Class 3 The value of percent of control at 10^−7 M was more than 60% or the value of IC50 was more than 200 nM.).

As for `COc1ccc2ccccc2c1CN[C@H]1CC[C@@H](Nc2nccc(N(C)C)n2)CC1` [compound 1211], the class is reported as 3 (Class 3 The value of percent of control at 10^−7 M was more than 60% or the value of IC50 was more than 200 nM.).

With `COc1cc(Br)cc(CN[C@H]2CC[C@@H](Nc3nccc(N(C)C)n3)CC2)c1O` [compound 1212], the class is recorded as 3 (Class 3 The value of percent of control at 10^−7 M was more than 60% or the value of IC50 was more than 200 nM.).

Take `CN(C)c1ccnc(N[C@H]2CC[C@@H](NCc3c[nH]c4ccc(Br)cc34)CC2)n1` [compound 1213]: the class is given as 2 (Class 2: The value of percent of control at 10^−7 M was from 40% to 60% or the value of IC′50 was from 50 nM to 200 nM.).

For the compound `COc1ccc(CN[C@H]2CC[C@@H](Nc3nccc(N(C)C)n3)CC2)c(OC)c1` [compound 1214], the class is 3 (Class 3 The value of percent of control at 10^−7 M was more than 60% or the value of IC50 was more than 200 nM.).

With `COc1ccc(CN[C@H]2CC[C@@H](Nc3nccc(N(C)C)n3)CC2)c(OC)c1OC` [compound 1215], the class is given as 3 (Class 3 The value of percent of control at 10^−7 M was more than 60% or the value of IC50 was more than 200 nM.).

For `COc1cc(CN[C@H]2CC[C@@H](Nc3nccc(N(C)C)n3)CC2)cc(OC)c1O` [compound 1216], the class is reported as 3 (Class 3 The value of percent of control at 10^−7 M was more than 60% or the value of IC50 was more than 200 nM.).

Consider `CCOc1cc(CN[C@H]2CC[C@@H](Nc3nccc(N(C)C)n3)CC2)ccc1OC` [compound 1217], for which the class is 3 (Class 3 The value of percent of control at 10^−7 M was more than 60% or the value of IC50 was more than 200 nM.).
